Our source for the EC50 values is patent US12723063B2, “GIPR-agonist compounds” (Eli Lilly and Company, priority 2019, dated 2026).

*1 amine or outer side, *2 acyl side, *3 side chain or, on linkers, in order; H or OH if unused. Where a SMILES comes first, the peptide text is derived from it. Side-chain parts run from the residue outwards. [ ]: non-standard residue; d: D form. The star is where a group is joined. C20 diacid = O=C(O)CCCCCCCCCCCCCCCCCCC(=O)*; γGlu = O=C(O)[C@H](CCC(=O)[*:2])N[*:1]; 4Pal = N[C@@H](Cc1ccncc1)C(=O)O; αMeL = CC(C)C[C@](C)(N)C(=O)O; AEEA = NCCOCCOCC(=O)O; Aib = CC(C)(N)C(=O)O

The target in assay [1] is T1, human GLP-1 receptor (GLP-1R) (Homo sapiens, UniProt P43220).
T1 construct: expressed in transfected cells; host or cells: HEK293
In words: cAMP functional assay (HTRF) in HEK293 cells in presence of 0.1% casein. It counts as cell-based. The following applies: HEK293 cells expressing human GLP-1R, geometric mean, read-out: hGLP1R cAMP Rel EC50 nM (SEM, n).

Assay [2] concerns the target T2, human glucose-dependent insulinotropic peptide receptor (GIPR) (Homo sapiens, UniProt P48546).
T2 construct: expressed in transfected cells; host or cells: HEK293
T2 sequence (P48546 22-466): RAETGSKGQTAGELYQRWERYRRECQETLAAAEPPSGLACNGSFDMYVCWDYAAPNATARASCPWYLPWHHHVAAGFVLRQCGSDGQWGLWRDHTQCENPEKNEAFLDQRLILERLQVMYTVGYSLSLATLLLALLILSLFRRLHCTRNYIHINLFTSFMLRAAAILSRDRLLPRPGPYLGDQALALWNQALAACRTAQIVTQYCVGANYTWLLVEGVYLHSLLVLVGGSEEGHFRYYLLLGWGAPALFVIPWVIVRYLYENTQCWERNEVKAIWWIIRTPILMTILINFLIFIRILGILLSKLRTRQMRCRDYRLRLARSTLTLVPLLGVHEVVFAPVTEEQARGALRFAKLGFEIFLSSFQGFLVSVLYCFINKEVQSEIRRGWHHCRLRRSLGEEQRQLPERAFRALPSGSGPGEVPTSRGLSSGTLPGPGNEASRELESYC
Described as above. It counts as cell-based. The following applies: HEK293 cells expressing human GIPR, geometric mean, read-out: hGIPR cAMP Rel EC50 nM (SEM, n).

T1 sequence (P43220 24-463): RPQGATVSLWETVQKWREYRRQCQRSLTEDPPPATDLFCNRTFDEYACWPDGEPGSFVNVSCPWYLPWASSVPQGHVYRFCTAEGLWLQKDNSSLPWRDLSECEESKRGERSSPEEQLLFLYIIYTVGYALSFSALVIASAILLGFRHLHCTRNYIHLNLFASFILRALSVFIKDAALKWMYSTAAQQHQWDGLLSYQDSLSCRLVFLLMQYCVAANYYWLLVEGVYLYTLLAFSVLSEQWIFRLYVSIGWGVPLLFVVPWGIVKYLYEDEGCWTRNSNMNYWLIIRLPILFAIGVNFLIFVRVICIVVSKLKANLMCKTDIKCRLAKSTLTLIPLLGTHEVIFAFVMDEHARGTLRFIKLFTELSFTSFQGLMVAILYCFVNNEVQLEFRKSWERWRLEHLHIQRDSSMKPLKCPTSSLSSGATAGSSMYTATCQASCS

Usually EC50 stands for the concentration giving half of the maximal effect. As to `CC[C@H](C)[C@H](NC(=O)[C@H](Cc1ccccc1)NC(=O)[C@@H](NC(=O)CNC(=O)[C@H](CCC(=O)O)NC(=O)C(C)(C)NC(=O)[C@@H](N)Cc1ccc(O)cc1)[C@@H](C)O)C(=O)N[C@@H](CO)C(=O)N[C@@H](CC(=O)O)C(=O)N[C@@H](Cc1ccc(O)cc1)C(=O)N[C@@H](CO)C(=O)N[C@H](C(=O)N[C@@](C)(CC(C)C)C(=O)N[C@@H](CC(C)C)C(=O)N[C@@H](CC(=O)O)C(=O)N[C@@H](CCCCN)C(=O)N[C@@H](CCCCNC(=O)COCCOCCNC(=O)COCCOCCNC(=O)CC[C@H](NC(=O)CCCCCCCCCCCCCCCCCCC(=O)O)C(=O)O)C(=O)N[C@@H](Cc1c[nH]cn1)C(=O)N[C@@H](CCC(N)=O)C(=O)NC(C)(C)C(=O)N[C@@H](CC(=O)O)C(=O)N[C@@H](Cc1ccccc1)C(=O)N[C@H](C(=O)N[C@@H](CCC(=O)O)C(=O)N[C@@H](Cc1ccc(O)cc1)C(=O)N[C@@H](CC(C)C)C(=O)N[C@@H](CC(C)C)C(=O)N[C@@H](CCC(=O)O)C(=O)N[C@H](C(=O)NCC(=O)N1CCC[C@H]1C(=O)N[C@@H](CO)C(=O)N[C@@H](CO)C(=O)NCC(=O)N[C@@H](C)C(=O)N1CCC[C@H]1C(=O)N1CCC[C@H]1C(=O)N1CCC[C@H]1C(=O)N[C@@H](CO)C(N)=O)[C@@H](C)O)C(C)C)[C@@H](C)CC` [Example 66] (H-Y[Aib]EGTFISDYSI[αMeL]LDKK([AEEA-AEEA-γGlu-C20 diacid])HQ[Aib]DFVEYLLETGPSSGAPPPS-NH2), the EC50 is above 5000 nM in assay [1] and 0.0786 nM in assay [2].
For `CC[C@H](C)[C@H](NC(=O)[C@H](Cc1ccccc1)NC(=O)[C@@H](NC(=O)CNC(=O)[C@H](CCC(=O)O)NC(=O)C(C)(C)NC(=O)[C@@H](N)Cc1ccc(O)cc1)[C@@H](C)O)C(=O)N[C@@H](CO)C(=O)N[C@@H](CC(=O)O)C(=O)N[C@@H](Cc1ccc(O)cc1)C(=O)N[C@@H](CO)C(=O)N[C@H](C(=O)N[C@@](C)(CC(C)C)C(=O)N[C@@H](CC(C)C)C(=O)N[C@@H](CC(=O)O)C(=O)N[C@@H](CCCCN)C(=O)N[C@@H](CCCCNC(=O)COCCOCCNC(=O)COCCOCCNC(=O)CC[C@H](NC(=O)CCCCCCCCCCCCCCCCCCC(=O)O)C(=O)O)C(=O)N[C@@H](Cc1c[nH]cn1)C(=O)N[C@@H](CCC(N)=O)C(=O)NC(C)(C)C(=O)N[C@@H](CC(=O)O)C(=O)N[C@@H](Cc1ccccc1)C(=O)N[C@H](C(=O)N[C@@H](CCC(=O)O)C(=O)N[C@@H](Cc1ccc(O)cc1)C(=O)N[C@@H](CC(C)C)C(=O)N[C@@H](CC(C)C)C(=O)N[C@@H](CCC(=O)O)C(=O)N[C@@H](C)C(=O)NCC(=O)N1CCC[C@H]1C(=O)N[C@@H](CO)C(=O)N[C@@H](CO)C(=O)NCC(=O)N[C@@H](C)C(=O)N1CCC[C@H]1C(=O)N1CCC[C@H]1C(=O)N1CCC[C@H]1C(=O)N[C@@H](CO)C(N)=O)C(C)C)[C@@H](C)CC` [Example 68] (H-Y[Aib]EGTFISDYSI[αMeL]LDKK([AEEA-AEEA-γGlu-C20 diacid])HQ[Aib]DFVEYLLEAGPSSGAPPPS-NH2), in that order: above 5000 nM and 0.0768 nM.
For `CC[C@H](C)[C@H](NC(=O)[C@H](Cc1ccccc1)NC(=O)[C@@H](NC(=O)CNC(=O)[C@H](CCC(=O)O)NC(=O)C(C)(C)NC(=O)[C@@H](N)Cc1ccc(O)cc1)[C@@H](C)O)C(=O)N[C@@H](CO)C(=O)N[C@@H](CC(=O)O)C(=O)N[C@@H](Cc1ccc(O)cc1)C(=O)N[C@@H](CO)C(=O)N[C@H](C(=O)N[C@@](C)(CC(C)C)C(=O)N[C@@H](CC(C)C)C(=O)N[C@@H](CC(=O)O)C(=O)N[C@@H](CCCCN)C(=O)N[C@@H](CCCCNC(=O)COCCOCCNC(=O)COCCOCCNC(=O)CC[C@H](NC(=O)CCCCCCCCCCCCCCCCCCC(=O)O)C(=O)O)C(=O)N[C@@H](Cc1c[nH]cn1)C(=O)N[C@@H](CCC(N)=O)C(=O)NC(C)(C)C(=O)N[C@@H](CC(=O)O)C(=O)N[C@@H](Cc1ccccc1)C(=O)N[C@H](C(=O)N[C@@H](CCC(=O)O)C(=O)N[C@@H](Cc1ccc(O)cc1)C(=O)N[C@@H](CC(C)C)C(=O)N[C@@H](CC(C)C)C(=O)N[C@@H](CCC(=O)O)C(=O)NCC(=O)NCC(=O)N1CCC[C@H]1C(=O)N[C@@H](CO)C(=O)N[C@@H](CO)C(=O)NCC(=O)N[C@@H](C)C(=O)N1CCC[C@H]1C(=O)N1CCC[C@H]1C(=O)N1CCC[C@H]1C(=O)N[C@@H](CO)C(N)=O)C(C)C)[C@@H](C)CC` [Example 69] (H-Y[Aib]EGTFISDYSI[αMeL]LDKK([AEEA-AEEA-γGlu-C20 diacid])HQ[Aib]DFVEYLLEGGPSSGAPPPS-NH2), in that order: above 5000 nM and 0.0302 nM.
For `CC[C@H](C)[C@H](NC(=O)[C@H](Cc1ccccc1)NC(=O)[C@@H](NC(=O)CNC(=O)[C@H](CCC(=O)O)NC(=O)C(C)(C)NC(=O)[C@@H](N)Cc1ccc(O)cc1)[C@@H](C)O)C(=O)N[C@@H](CO)C(=O)N[C@@H](CC(=O)O)C(=O)N[C@@H](Cc1ccc(O)cc1)C(=O)N[C@@H](CO)C(=O)N[C@H](C(=O)N[C@@](C)(CC(C)C)C(=O)N[C@@H](CC(C)C)C(=O)N[C@@H](CC(=O)O)C(=O)N[C@@H](CCCCN)C(=O)N[C@@H](CCCCNC(=O)COCCOCCNC(=O)COCCOCCNC(=O)CC[C@H](NC(=O)CCCCCCCCCCCCCCCCCCC(=O)O)C(=O)O)C(=O)N[C@@H](Cc1c[nH]cn1)C(=O)N[C@@H](CCC(N)=O)C(=O)NC(C)(C)C(=O)N[C@@H](CC(=O)O)C(=O)N[C@@H](Cc1ccccc1)C(=O)N[C@H](C(=O)N[C@@H](CCC(=O)O)C(=O)N[C@@H](Cc1ccncc1)C(=O)N[C@@H](CC(C)C)C(=O)N[C@@H](CC(C)C)C(=O)N[C@@H](C)C(=O)N[C@H](C(=O)NCC(=O)N1CCC[C@H]1C(=O)N[C@@H](CO)C(=O)N[C@@H](CO)C(=O)NCC(=O)N[C@@H](C)C(=O)N1CCC[C@H]1C(=O)N1CCC[C@H]1C(=O)N1CCC[C@H]1C(=O)N[C@@H](CO)C(N)=O)[C@@H](C)O)C(C)C)[C@@H](C)CC` [Example 70] (H-Y[Aib]EGTFISDYSI[αMeL]LDKK([AEEA-AEEA-γGlu-C20 diacid])HQ[Aib]DFVE[4Pal]LLATGPSSGAPPPS-NH2), in that order: above 5000 nM and 0.0254 nM.
Turning to `CC[C@H](C)[C@H](NC(=O)[C@H](Cc1ccccc1)NC(=O)[C@@H](NC(=O)CNC(=O)[C@H](CCC(=O)O)NC(=O)C(C)(C)NC(=O)[C@@H](N)Cc1ccc(O)cc1)[C@@H](C)O)C(=O)N[C@@H](CO)C(=O)N[C@@H](CC(=O)O)C(=O)N[C@@H](Cc1ccc(O)cc1)C(=O)N[C@@H](CO)C(=O)N[C@H](C(=O)N[C@@](C)(CC(C)C)C(=O)N[C@@H](CC(C)C)C(=O)N[C@@H](CC(=O)O)C(=O)N[C@@H](CCCCN)C(=O)N[C@@H](CCCCNC(=O)COCCOCCNC(=O)COCCOCCNC(=O)CC[C@H](NC(=O)CCCCCCCCCCCCCCCCCCC(=O)O)C(=O)O)C(=O)N[C@@H](Cc1c[nH]cn1)C(=O)N[C@@H](CCC(N)=O)C(=O)NC(C)(C)C(=O)N[C@@H](CC(=O)O)C(=O)N[C@@H](Cc1ccccc1)C(=O)N[C@H](C(=O)N[C@@H](CCC(=O)O)C(=O)N[C@@H](Cc1c[nH]c2ccccc12)C(=O)N[C@@H](CC(C)C)C(=O)N[C@@H](CC(C)C)C(=O)N[C@@H](CCC(=O)O)C(=O)N[C@H](C(=O)NCC(=O)N1CCC[C@H]1C(=O)N[C@@H](CO)C(=O)N[C@@H](CO)C(=O)NCC(=O)N[C@@H](C)C(=O)N1CCC[C@H]1C(=O)N1CCC[C@H]1C(=O)N1CCC[C@H]1C(=O)N[C@@H](CO)C(N)=O)[C@@H](C)O)C(C)C)[C@@H](C)CC` [Example 71] (H-Y[Aib]EGTFISDYSI[αMeL]LDKK([AEEA-AEEA-γGlu-C20 diacid])HQ[Aib]DFVEWLLETGPSSGAPPPS-NH2), the EC50 in assay [1] was above 5000 nM; in assay [2], 0.0721 nM.
For `CC[C@H](C)[C@H](NC(=O)[C@H](CC(C)C)NC(=O)[C@@H](NC(=O)CNC(=O)[C@H](CCC(=O)O)NC(=O)C(C)(C)NC(=O)[C@@H](N)Cc1ccc(O)cc1)[C@@H](C)O)C(=O)N[C@@H](CO)C(=O)N[C@@H](CC(=O)O)C(=O)N[C@@H](Cc1ccc(O)cc1)C(=O)N[C@@H](CO)C(=O)N[C@H](C(=O)N[C@@](C)(CC(C)C)C(=O)N[C@@H](CC(C)C)C(=O)N[C@@H](CC(=O)O)C(=O)N[C@@H](CCCCN)C(=O)N[C@@H](CCCCNC(=O)COCCOCCNC(=O)COCCOCCNC(=O)CC[C@H](NC(=O)CCCCCCCCCCCCCCCCCCC(=O)O)C(=O)O)C(=O)N[C@@H](Cc1c[nH]cn1)C(=O)N[C@@H](CCC(N)=O)C(=O)NC(C)(C)C(=O)N[C@@H](CCC(=O)O)C(=O)N[C@@H](Cc1ccccc1)C(=O)N[C@H](C(=O)N[C@@H](CCC(=O)O)C(=O)N[C@@H](Cc1ccc(O)cc1)C(=O)N[C@@H](CC(C)C)C(=O)N[C@@H](CC(C)C)C(=O)N[C@@H](CCC(=O)O)C(=O)N[C@H](C(=O)NCC(=O)N1CCC[C@H]1C(=O)N[C@@H](CO)C(=O)N[C@@H](CO)C(=O)NCC(=O)N[C@@H](C)C(=O)N1CCC[C@H]1C(=O)N1CCC[C@H]1C(=O)N1CCC[C@H]1C(=O)N[C@@H](CO)C(N)=O)[C@@H](C)O)C(C)C)[C@@H](C)CC` [Example 72] (H-Y[Aib]EGTLISDYSI[αMeL]LDKK([AEEA-AEEA-γGlu-C20 diacid])HQ[Aib]EFVEYLLETGPSSGAPPPS-NH2), in that order: above 5000 nM and 0.0182 nM.
